In patent publication US11008334B2, “Compositions and methods for treating cancer” (The Regents of the University of California, priority 2012, dated 2021):
Where two headings read alike, the source gives them in different places.

Experiments:
G12C cell lines = experiment: Proliferation of human lung cancer cell lines; type: cell-based; settings: 24 hr treatment (0.5% FBS), 48 hr washout (10% FBS)
[1] = tested on: binding of RasGTP to Raf1-RBD; experiment: Raf1-RBD pull-downs; settings: after EDTA-catalyzed exchange
K-RasG12C (1-169) [2] = target: T1, K-RasG12C (1-169) (Homo sapiens, UniProt P01116, G12C); experiment: Mass spectrometric screen for extent of covalent labeling; type: binding; settings: for percent covalent labeling at 10 µM: 10 micromolar; for Labeling % (10 micM) 24h: 10 micM compound, (plate) or (single) measurement
T1 construct: Un-tagged recombinant K-Ras G12C (1-169) at 4 μM in Buffer A; hexahistidine (cleaved yes); made in house; host or cells: Escherichia coli BL21 (DE)
Experimental: Un-tagged recombinant K-Ras G12C (1-169) at 4 μM in Buffer A was reacted with inhibitors at 200 μM or 10 μM (2% DMSO final). At 2, 6, and 24 hrs, 10 μL aliquots were removed and the reactions were stopped by addition of 1 μL 2% formic acid. The extent of modification was determined by mass spectrometry.

K-RasG12C (1-169) [3] = target: T1, K-RasG12C (1-169); experiment: Disulfide library (tethering) screen, covalent modification by mass spectrometry; type: binding; settings: 200 micM BME; read-out: Potency/ Labeling (EC50 at 200 micM BME) Tethering
[4] = 6 h, 6 hrs, read-out: Percent reduction in activity of compound at 10 micromolar relative to control (no compound), 6 hrs
[5] = 24 h, 24 hrs, read-out: Percent reduction in activity of compound at 10 micromolar relative to control (no compound), 24 hrs
[6] = 2 h, 2 hrs, read-out: Percent reduction in activity of compound at 10 micromolar relative to control (no compound), 2 hrs

SMILES | percent covalent labeling at 10 µM (K-RasG12C (1-169) [2]; [4]) [%] | percent covalent labeling at 10 µM (K-RasG12C (1-169) [2]; [5]) [%] | percent covalent labeling at 10 µM (K-RasG12C (1-169) [2]; [6]) [%] | Labeling % (10 micM) 24h (K-RasG12C (1-169) [2]) | Labeling % (10 micM) 24h (K-RasG12C (1-169) [2]; Table 5) | EC50 (K-RasG12C (1-169) [3]) [µM] | sensitivity of proliferation of G12C cell lines (G12C cell lines) | binding of RasGTP to Raf1-RBD [1]
C=CC(=O)N1CCN(C(=O)CNc2cc(I)c(Cl)cc2O)CC1 [Ras-083] | 20 to 40 | > 60 | – | – | – | – | significantly more sensitive | impairs binding of RasGTP to Raf1-RBD
C=CC(=O)NC1CCN(C(=O)COc2c(Cl)cc(Cl)cc2Cl)CC1 [Ras-002] | ≤ 5 | ≤ 5 | ≤ 5 | – | – | – | – | –
O=C(NC1CCN(C(=O)COc2ccc(Cl)cc2Cl)CC1)C1CO1 (stereo not shown) [JO-02-72] | ≤ 5 | ≤ 5 | ≤ 5 | – | – | – | – | –
C=CS(=O)(=O)NC1CCN(C(=O)COc2ccc(Cl)cc2Br)CC1 [Ras-015] | ≤ 5 | 20 to 40 | ≤ 5 | – | – | – | – | –
C=CS(=O)(=O)N1CCC2(CCN(C(=O)COc3ccc(Cl)cc3Cl)C2)C1 (stereo not shown) [JO-02-74B] | ≤ 5 | 5 to 20 | ≤ 5 | – | – | – | – | –
C=CS(=O)(=O)NC1CCN(C(=O)c2cc3cc(OC)ccc3[nH]2)CC1 [JO-02-49C] | ≤ 5 | ≤ 5 | ≤ 5 | – | – | – | – | –
C=CS(=O)(=O)NCCNC(=O)COc1ccc(Cl)cc1Cl [JO-02-36A] | ≤ 5 | ≤ 5 | ≤ 5 | – | – | – | – | –
C=CS(=O)(=O)NC1CCN(C(=O)COc2cc(N(C)C)c(Cl)cc2Cl)CC1 [Ras-026] | ≤ 5 | 5 to 20 | ≤ 5 | – | – | – | – | –
C=CS(=O)(=O)NC1CCN(C(=O)C(C)Oc2ccc(Cl)cc2Cl)CC1 (stereo not shown) [JO-02-115B] | ≤ 5 | ≤ 5 | ≤ 5 | – | – | – | – | –
C=CS(=O)(=O)N1CCC(NC(=O)COc2ccc(Cl)cc2Cl)CC1 [JO-02-55] | ≤ 5 | 5 to 20 | ≤ 5 | – | – | – | – | –
C=CS(=O)(=O)NCC(=O)Nc1cc(-c2ccc(Cl)cc2)n[nH]1 [JO-02-139E] | ≤ 5 | ≤ 5 | ≤ 5 | – | – | – | – | –
C=CS(=O)(=O)NC1CCN(C(=O)CCn2ncc3ccccc32)CC1 [Ras-010] | ≤ 5 | ≤ 5 | ≤ 5 | – | – | – | – | –
C=CS(=O)(=O)NC1CCN(C(=O)COc2nc(Cl)c(Cl)cc2Cl)CC1 [JO-02-116B] | ≤ 5 | ≤ 5 | ≤ 5 | – | – | – | – | –
O=C(NCCS)C1CCN(C(=O)COc2ccc(Cl)cc2Cl)CC1 [JO-01-148] | – | – | – | – | – | 40 to 60 | – | –
C=CS(=O)(=O)NC1CCN(C(=O)CNc2cc(Cl)c(Cl)cc2I)CC1 [JO-02-144] | 5 to 20 | > 60 | ≤ 5 | – | – | – | – | –
C=CC(=O)N1CCN(C(=O)CNc2cc(Cl)c(Cl)cc2I)CC1 [JO-02-155] | 5 to 20 | 40 to 60 | ≤ 5 | – | – | – | – | –
C=CC(=O)N1CCN(C(=O)COc2ccc(Cl)cc2Cl)CC1 [JO-01-172] | ≤ 5 | ≤ 5 | ≤ 5 | – | – | – | – | –
C=CS(=O)(=O)NC1CCN(C(=O)COc2cc(OCCN)c(Cl)cc2Cl)CC1 [Ras-027] | ≤ 5 | ≤ 5 | ≤ 5 | – | – | – | – | –
C=CS(=O)(=O)NC1CCN(C(=O)COc2ccc(Cl)cc2I)CC1 [Ras-030] | ≤ 5 | 40 to 60 | ≤ 5 | – | – | – | – | –
C=CS(=O)(=O)NC1CCN(C(=O)CSc2ccc(Cl)c3ccccc23)CC1 [JO-02-31C] | ≤ 5 | 20 to 40 | ≤ 5 | – | – | – | – | –

Second part, led by results:

percent covalent labeling at 10 µM (K-RasG12C (1-169) [2]; [4]) [%] | percent covalent labeling at 10 µM (K-RasG12C (1-169) [2]; [5]) [%] | percent covalent labeling at 10 µM (K-RasG12C (1-169) [2]; [6]) [%] | Labeling % (10 micM) 24h (K-RasG12C (1-169) [2]) | Labeling % (10 micM) 24h (K-RasG12C (1-169) [2]; Table 5) | EC50 (K-RasG12C (1-169) [3]) [µM] | SMILES | sensitivity of proliferation of G12C cell lines (G12C cell lines) | binding of RasGTP to Raf1-RBD [1]
20 to 40 | > 60 | 5 to 20 | +++++ (plate) (60% < +++++) | +++++ (plate) (60% < +++++) | – | C=CS(=O)(=O)NC1CCN(C(=O)CNc2cc(Cl)c(Cl)cc2O)CC1 [Ras-055] | – | –
5 to 20 | 20 to 40 | ≤ 5 | – | – | – | C=CS(=O)(=O)NC1CCN(C(=O)CNc2cc(C(F)(F)F)c(Cl)cc2OC)CC1 [Ras-065] | – | –
20 to 40 | > 60 | – | – | – | – | C=CC(=O)N1CCN(C(=O)CNc2cc(Cl)c(Cl)cc2O)CC1 [Ras-073] | – | –
5 to 20 | 20 to 40 | ≤ 5 | – | – | – | C=CS(=O)(=O)NC1CCN(C(=O)COc2cc(Cl)c(Cl)cc2O)CC1 [Ras-063] | – | –
≤ 5 | ≤ 5 | ≤ 5 | – | – | – | C=CS(=O)(=O)NC1CCN(C(=O)CSc2n[nH]c(C)n2)CC1 [UP-I-164C] | – | –
≤ 5 | ≤ 5 | ≤ 5 | – | – | – | C=CS(=O)(=O)NC1CCN(C(=O)CSc2nnc(C)s2)CC1 [UP-I-164A] | – | –
≤ 5 | 20 to 40 | ≤ 5 | – | – | – | C=CS(=O)(=O)NC1CCN(C(=O)COc2cc(CCO)c(Cl)cc2Cl)CC1 [Ras-070] | – | –
≤ 5 | 20 to 40 | ≤ 5 | – | +++ (single) (20%< +++ <=40%) | – | C=CS(=O)(=O)NC1CCN(C(=O)CNc2c(Cl)cc(Cl)c3nonc23)CC1 [UP-I-187] | – | –
≤ 5 | 5 to 20 | ≤ 5 | – | – | – | C=CS(=O)(=O)NC1CCN(C(=O)COc2ccc(Cl)cc2OC)CC1 [Ras-041] | – | –
≤ 5 | ≤ 5 | ≤ 5 | – | – | – | C=CS(=O)(=O)NC1CCN(C(=O)COc2ccc(Cl)cc2N(C)C)CC1 [Ras-034] | – | –
≤ 5 | ≤ 5 | ≤ 5 | – | – | – | C=CS(=O)(=O)NC1CCN(C(=O)COc2c(Cl)cc(Cl)cc2NC(=O)OC(C)(C)C)CC1 [UP-I-162B] | – | –
≤ 5 | 20 to 40 | ≤ 5 | – | – | – | C=CS(=O)(=O)NC1CCN(C(=O)CNc2cc(OC)c(Cl)cc2OC)CC1 [Ras-064] | – | –
> 60 | > 60 | 20 to 40 | – | – | – | C=CS(=O)(=O)NC1CCN(C(=O)CNc2cc(I)c(Cl)cc2O)CC1 [Ras-084] | – | –
